Experimental findings from patent US11419856B2, “Pharmaceutical combinations for use in the treatment of neoplastic diseases” (Basilea Pharmaceutica International AG, priority 2017, dated 2022) are described below.

In assay [1] the test system is microtubules (soluble vs polymerized tubulin), MDA-MB-231 cells. Briefly: Cellular microtubule destabilization assay and immunoblotting for tubulin. In kind it is cell-based, human. Particulars: 2 hours. On the procedure: The following human cell line was used: MDA-MB-231 (ATCC: HTB-26). In addition the following enhanced green fluorescent protein (EGFP)-transfected human cell lines were used: NCI-H460 (ATCC: HTB-177) (H460GFP) and Jurkat (ATCC: TIB-152) (JurkatGFP). NCI-H460 and Jurkat cell lines were cultured in RPMI-1640 tissue culture medium containing 10% (v/v) fetal calf serum, 2 mM glutamine, non-essential amino acids and 50 μg/ml penicillin/streptomycin (Complete medium) (Sigma, Buchs, Switzerland). The MDA-MB-231 cell line was cultured in Dulbecco's Modified Eagle Medium (DMEM) (high glucose) tissue culture medium containing 10% (v/v) fetal calf serum, 1 mM sodium pyruvate and 50 μg/ml penicillin/streptomycin (i.e. Complete Medium) (Sigma, Buchs, Switzerland).
General growth conditions were 37° C. and 7.5% CO2. For the microtubule destabilization assay cell lines were cultured in 5% CO2.
Trypsinized MDA-MB-231 cells (500′000 cells per treatment) were treated in 1 mL medium containing BAL27862 and/or eribulin (Halaven®, Ch.-B. 60363CRN1, Eisai) or appropriate vehicle control (dimethylsulfoxide (DMSO)) for 2 hours in a water bath at 37° C. […]
Background: A western blot detects proteins with antibodies after separation by electrophoresis.

A further assay has as its system NCI-H460-GFP cells. Briefly: Apoptosis assay (EGFP/FACS) in NCI-H460-GFP cells. In kind it is cell-based. Particulars: Homo sapiens, data not shown, read-out: EC50, induction of apoptosis. On the procedure: The following human cell line was used: MDA-MB-231 (ATCC: HTB-26). In addition the following enhanced green fluorescent protein (EGFP)-transfected human cell lines were used: NCI-H460 (ATCC: HTB-177) (H460GFP) and Jurkat (ATCC: TIB-152) (JurkatGFP). NCI-H460 and Jurkat cell lines were cultured in RPMI-1640 tissue culture medium containing 10% (v/v) fetal calf serum, 2 mM glutamine, non-essential amino acids and 50 μg/ml penicillin/streptomycin (Complete medium) (Sigma, Buchs, Switzerland). […]
The assays were performed in commercially available sterile 96-well U-bottom or 24-well flat-bottom tissue culture plates (Falcon). […] For time course experiments with Jurkat cells, the 96-well plates were removed shortly at the indicated time from the incubator, shaken in order to suspend the cells and an aliquot of 200 μl cell suspension was then transferred to a 96-well U-bottom plate and measured immediately on a fluorescence-activated cell sorting (FACS)-Canto II with a high through-put sampler (HTS)-module. […]
The quantification of the relative amount of apoptotic cells within a cell population was determined according to the Reference of Strebel et al., Cytometry 2001, 43(2), Green Fluorescent Protein as Novel Tool to Measure Apoptosis and Necrosis). […] As a readout the relative abundance of the cells belonging to M2 (apoptotic population) were expressed.

On to `N#CCCNc1nonc1-c1nc2ccccc2n1CC(=O)c1ccc(N)cc1` [BAL27862, 3-(4-{1-[2-(4-Amino-phenyl)-2-oxo-ethyl]-1H-benzoimidazol-2-yl}-furazan-3-ylamino)-propionitrile], for which, in assay [1] (single agent 20 and 30 nM (FIG. 5A)), the “microtubule destabilizing activity (soluble vs particulate tubulin, Western blot)” value is reported as “concentration-dependent but incomplete destabilizing effect”. In addition, the EC50 (as a rule, the concentration that produces a half-maximal response) with NCI-H460-GFP cells is 24 nM.

With `C=C1C[C@@H]2CC[C@@]34C[C@H]5O[C@H]6[C@@H](O3)[C@H]3O[C@H](CC[C@@H]3O[C@H]6[C@H]5O4)CC(=O)C[C@@H]3[C@@H](OC)[C@@H](C[C@H](O)CN)O[C@H]3C[C@H]3O[C@@H](CC[C@@H]1O2)C[C@@H](C)C3=C.CS(=O)(=O)O` [Eribulin, (2R, 3R, 3aS, 7R, 8aS, 9S, 10aR, 11S, 12R, 13aR, 13bS, 15S, 18S, 21S, 24S, 26R, 28R, 29aS)-2-[(2S)-3-Amino-2-hydroxypropyl]-3-methoxy-26-methyl-20,27-dimethylidenehexacosahydro-11,15:18,21:24,28-triepoxy-7,9-ethano-12,15-methano-9H,15H-furo[3,2-i]furo[2′,3′:5,6]pyrano[4,3-b][1,4]dioxacyclopentacosin-5(4H)-one methanesulfonate (salt)], in assay [1] (single agent 0.2 nM and 2 nM), the “microtubule destabilizing activity (soluble vs particulate tubulin, Western blot)” value was “only a small increase in soluble tubulin”. The EC50 with NCI-H460-GFP cells came out at 1 nM.
